The values that follow come from US20100003250A1, “(2-ARYL-7H-PYRROLO[2,3-D]PYRIMIDIN-4-YL)MORPHOLINE COMPOUNDS, THEIR USE AS MTOR KINASE AND PI3 KINASE INHIBITORS, AND THEIR SYNTHESES” (Wyeth, priority 2008, published 2010).

Some results are limits rather than exact numbers.

What all share (format): biochemical
Test [1] concerns the target PI3Kγ (Homo sapiens, UniProt P48736). The test can be described thus: PI3K-gamma fluorescence polarization assay. The note with it: 20 μM PIP2, 25 μM ATP; read-out: PI3Kγ Median IC50. Here is the method:
PI3K-alpha and PI3K-gamma Fluorescence Polarization Assay Protocols
The reaction buffer was 20 mM HEPES pH 7.5, 2 mM MgCl2, 0.05% CHAPS, and 0.01% βME (added fresh). The substrate solution was 40 μM PIP2 (diC8, Echelon, Salt Lake City Utah cat # P-4508, 1 mM in water) and 50 μM ATP in the reaction buffer. Nunc 384-well black polypropylene fluorescent plates were used for PI3K assays. The assay is run by putting 9.5 μl of freshly diluted enzyme in the reaction buffer per well, adding 0.5 μl of diluted drug or DMSO, and mixing. Then 10 μl of the substrate solution is added to each well to start the reaction. A final concentration of 20 μM PIP2 and 25 μM ATP in the reaction was used. Reactions were allowed to proceed for 30-60 minutes at room temperature. After 30-60 minutes, 20 μl of a solution of 10 nM TAMRA detector (Red detector probe-Echelon) and 2.5 μM of GST-murineGRP (1.5 mg/ml in 17% glycerol) was added per well to stop the reaction. The resulting solution was mixed well and allowed to stand for 90-110 minutes before reading plate. Assay Plates were read on Perkin-Elmer Envision plate readers with appropriate filters for Tamra [BODIPY-TMRI(1,3,4,5)P4]. Data obtained were used to calculate enzymatic activity and enzyme inhibition by inhibitor compounds. It is important to keep Red probe solutions dark. This procedure is adapted from Echelon Biosciences Inc procedure for their PI3-Kinase fluorescence polarization activity Assay kit Product number K-1100.

The target of test [2] is PI3Kα (Homo sapiens, UniProt P42336). The test can be described thus: PI3K-alpha fluorescence polarization assay. Particulars: 20 μM PIP2, 25 μM ATP; read-out: PI3Kα Median IC50.
The target of test [3] is T1, mTOR Kinase (FLAG-TOR) (Homo sapiens, UniProt P42345).
T1 construct: FLAG
Nature of the test: mTOR kinase assay, purified enzyme, DELFIA format. Particulars: 100 μM ATP, 1.25 μM His6-S6K; read-out: mTOR Kinase Median IC50.

Sequence of PI3Kγ (P48736 whole entry, species assumed): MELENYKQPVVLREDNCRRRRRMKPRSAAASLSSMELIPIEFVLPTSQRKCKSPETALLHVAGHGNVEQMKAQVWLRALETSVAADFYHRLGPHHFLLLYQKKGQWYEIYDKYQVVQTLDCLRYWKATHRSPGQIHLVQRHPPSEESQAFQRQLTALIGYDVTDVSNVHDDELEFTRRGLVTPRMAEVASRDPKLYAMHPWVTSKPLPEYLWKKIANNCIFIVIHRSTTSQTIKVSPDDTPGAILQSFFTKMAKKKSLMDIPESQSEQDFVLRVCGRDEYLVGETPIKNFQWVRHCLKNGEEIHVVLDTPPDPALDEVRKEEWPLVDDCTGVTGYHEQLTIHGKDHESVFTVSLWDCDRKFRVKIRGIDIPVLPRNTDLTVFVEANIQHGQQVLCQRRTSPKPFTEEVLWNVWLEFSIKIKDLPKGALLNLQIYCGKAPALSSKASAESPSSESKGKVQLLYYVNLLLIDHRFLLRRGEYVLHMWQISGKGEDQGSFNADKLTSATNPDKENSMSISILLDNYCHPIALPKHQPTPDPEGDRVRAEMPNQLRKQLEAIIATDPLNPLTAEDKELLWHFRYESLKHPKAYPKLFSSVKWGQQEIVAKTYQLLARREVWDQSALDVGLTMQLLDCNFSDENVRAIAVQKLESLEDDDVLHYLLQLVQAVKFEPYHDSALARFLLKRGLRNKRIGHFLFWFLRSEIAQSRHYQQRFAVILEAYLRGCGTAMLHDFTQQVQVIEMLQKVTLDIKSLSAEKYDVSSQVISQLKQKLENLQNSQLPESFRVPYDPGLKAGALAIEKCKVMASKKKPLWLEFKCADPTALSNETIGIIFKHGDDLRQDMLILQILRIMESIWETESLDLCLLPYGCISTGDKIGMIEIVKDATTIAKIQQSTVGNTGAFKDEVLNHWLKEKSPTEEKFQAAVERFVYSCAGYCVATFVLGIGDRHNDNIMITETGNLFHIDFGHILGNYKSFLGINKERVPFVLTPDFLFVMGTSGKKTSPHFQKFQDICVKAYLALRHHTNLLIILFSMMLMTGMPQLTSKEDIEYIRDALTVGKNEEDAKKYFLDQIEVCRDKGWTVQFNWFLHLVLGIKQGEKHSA
Sequence of PI3Kα (P42336 whole entry, species assumed): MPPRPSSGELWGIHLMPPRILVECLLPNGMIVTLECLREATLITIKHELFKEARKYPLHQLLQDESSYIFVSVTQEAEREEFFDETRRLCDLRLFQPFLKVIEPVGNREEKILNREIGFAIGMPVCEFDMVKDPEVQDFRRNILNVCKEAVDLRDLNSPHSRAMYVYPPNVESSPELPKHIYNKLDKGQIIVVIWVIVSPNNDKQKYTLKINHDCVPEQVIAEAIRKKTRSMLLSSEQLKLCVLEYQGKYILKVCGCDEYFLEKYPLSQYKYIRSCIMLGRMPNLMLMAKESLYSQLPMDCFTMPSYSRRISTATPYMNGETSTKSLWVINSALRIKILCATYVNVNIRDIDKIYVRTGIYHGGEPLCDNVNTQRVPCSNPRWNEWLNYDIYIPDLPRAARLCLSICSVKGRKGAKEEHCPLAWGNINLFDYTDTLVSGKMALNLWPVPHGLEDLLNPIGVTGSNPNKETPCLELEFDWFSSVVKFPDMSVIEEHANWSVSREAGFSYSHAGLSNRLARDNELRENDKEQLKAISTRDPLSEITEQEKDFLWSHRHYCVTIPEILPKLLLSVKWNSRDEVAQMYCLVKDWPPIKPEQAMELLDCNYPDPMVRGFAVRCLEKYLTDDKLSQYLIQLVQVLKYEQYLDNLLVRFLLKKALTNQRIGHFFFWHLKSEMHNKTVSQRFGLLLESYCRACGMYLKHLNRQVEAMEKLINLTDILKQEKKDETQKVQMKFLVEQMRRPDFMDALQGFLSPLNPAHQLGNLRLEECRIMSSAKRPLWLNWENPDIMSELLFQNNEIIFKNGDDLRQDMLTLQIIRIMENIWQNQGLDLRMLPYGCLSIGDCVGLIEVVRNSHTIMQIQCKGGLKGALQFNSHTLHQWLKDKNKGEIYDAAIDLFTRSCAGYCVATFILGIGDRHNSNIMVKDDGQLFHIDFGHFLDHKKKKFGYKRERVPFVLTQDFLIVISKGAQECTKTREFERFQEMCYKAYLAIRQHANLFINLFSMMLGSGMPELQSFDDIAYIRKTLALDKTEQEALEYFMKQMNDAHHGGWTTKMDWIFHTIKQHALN
Sequence of PI3Kα (P27986 whole entry partner, species assumed): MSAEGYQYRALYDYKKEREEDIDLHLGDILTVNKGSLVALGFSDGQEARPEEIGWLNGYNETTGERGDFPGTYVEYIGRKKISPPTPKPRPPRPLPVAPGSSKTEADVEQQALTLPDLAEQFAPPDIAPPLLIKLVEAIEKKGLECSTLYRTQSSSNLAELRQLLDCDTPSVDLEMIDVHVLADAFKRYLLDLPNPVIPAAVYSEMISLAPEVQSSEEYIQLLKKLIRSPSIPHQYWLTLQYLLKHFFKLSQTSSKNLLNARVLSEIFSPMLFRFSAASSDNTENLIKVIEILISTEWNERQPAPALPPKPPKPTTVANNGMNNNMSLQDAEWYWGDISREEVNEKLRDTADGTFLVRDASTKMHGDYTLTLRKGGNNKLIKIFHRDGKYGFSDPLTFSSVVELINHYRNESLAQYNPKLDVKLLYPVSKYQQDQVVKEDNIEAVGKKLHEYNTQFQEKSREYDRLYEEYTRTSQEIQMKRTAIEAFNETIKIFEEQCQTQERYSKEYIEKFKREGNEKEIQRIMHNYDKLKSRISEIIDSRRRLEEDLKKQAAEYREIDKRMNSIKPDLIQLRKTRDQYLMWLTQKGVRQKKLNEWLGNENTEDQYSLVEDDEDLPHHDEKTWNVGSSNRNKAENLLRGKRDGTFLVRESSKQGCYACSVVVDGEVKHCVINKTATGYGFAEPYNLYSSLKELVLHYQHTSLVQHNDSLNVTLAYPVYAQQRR

As for `CC1(C)CN(C(=O)c2ccc(NC(=O)Nc3ccc(-c4nc(N5CCOCC5)c5ccn(CC(F)(F)F)c5n4)cc3)cc2)CCN1` [Compound 55, 1-{4-[(3,3-dimethylpiperazin-1-yl)carbonyl]phenyl}-3-{4-[4-morpholin-4-yl-7-(2,2,2-trifluoroethyl)-7H-pyrrolo[2,3-d]pyrimidin-2-yl]phenyl}urea], the IC50 in test [1] was 15 nM; in test [2], under 1.9 nM; in test [3] it was 0.94 nM.

As to `CN(C)CCn1ccc2c(N3CCOCC3)nc(-c3ccc(NC(=O)NCCc4c[nH]c5ccccc45)cc3)nc21` [Compound 18, 1-(4-{7-[2-(dimethylamino)ethyl]-4-morpholin-4-yl-7H-pyrrolo[2,3-d]pyrimidin-2-yl}phenyl)-3-[2-(1H-indol-3-yl)ethyl]urea], the figures for the IC50 in test [1], in test [2] and in test [3] were 2180 nM, 1400 nM and 102 nM, respectively.

Regarding `O=C(Nc1ccc(-c2nc(N3CCOCC3)c3cc[nH]c3n2)cc1)Nc1cccnc1` [Compound 5, 1-[4-(4-morpholin-4-yl-7H-pyrrolo[2,3-d]pyrimidin-2-yl)phenyl]-3-pyridin-3-ylurea], the values for the IC50 in test [1], in test [2] and in test [3] were 78 nM, 15 nM and 1.7 nM, respectively.

With `CCn1ccc2c(N3CCOCC3)nc(-c3ccc(NC(=O)Nc4ccc(C(=O)N5CCC(N6CCCCC6)CC5)cc4)cc3)nc21` [Compound 72, 1-[4-(1,4′-bipiperidin-1′-ylcarbonyl)phenyl]-3-[4-(7-ethyl-4-morpholin-4-yl-7H-pyrrolo[2,3-d]pyrimidin-2-yl)phenyl]urea], the IC50 in test [1] is 28 nM; in test [2], 3.5 nM; in test [3], 1.4 nM.

As for `CCn1ccc2c(N3CCOCC3)nc(-c3ccc(NC(=O)Nc4ccc(C(=O)N5CCC(N(C)C)CC5)cc4)cc3)nc21` [Compound 65, 1-(4-{[4-(dimethylamino)piperidin-1-yl]carbonyl}phenyl)-3-[4-(7-ethyl-4-morpholin-4-yl-7H-pyrrolo[2,3-d]pyrimidin-2-yl)phenyl]urea], the figures for the IC50 in test [1], in test [2] and in test [3] were 20 nM, 1.1 nM and 1.09 nM, respectively.

`c1cc(-c2nc(N3CCOCC3)c3cc[nH]c3n2)c2cn[nH]c2c1` [Compound 3, 2-(1H-indazol-4-yl)-4-morpholin-4-yl-7H-pyrrolo[2,3-d]pyrimidine]: the figures for the 50% inhibitory concentration (IC50) in test [1], in test [2] and in test [3] were 10800 nM, 830 nM and 1200 nM, respectively.

As for `CCn1ccc2c(N3CCOCC3)nc(-c3ccc(NC(=O)Nc4ccc(C(=O)NCCOC)cc4)cc3)nc21` [Compound 78, 4-({[4-(7-ethyl-4-morpholin-4-yl-7H-pyrrolo[2,3-d]pyrimidin-2-yl)phenyl]carbamoyl}amino)-N-(2-methoxyethyl)benzamide], the figures for the IC50 in test [1], in test [2] and in test [3] were 118 nM, 9.5 nM and 1.15 nM, respectively.

For the molecule `Cn1ccc2c(N3CCOCC3)nc(-c3ccc(NC(=O)Nc4cccnc4)cc3)nc21` [Compound 44, 1-[4-(7-methyl-4-morpholin-4-yl-7H-pyrrolo[2,3-d]pyrimidin-2-yl)phenyl]-3-pyridin-3-ylurea], the IC50 in test [1] was found to be 144 nM; in test [2], 26 nM; in test [3], 1.9 nM.

On to `CCn1ccc2c(N3CCOCC3)nc(-c3ccc(NC(=O)Nc4ccc(C(=O)NCCN5CCCC5)cc4)cc3)nc21` [Compound 76, 4-({[4-(7-ethyl-4-morpholin-4-yl-7H-pyrrolo[2,3-d]pyrimidin-2-yl)phenyl]carbamoyl}amino)-N-(2-pyrrolidin-1-ylethyl)benzamide], for which the IC50 in test [1] stood at 38 nM; in test [2] it was 2 nM; in test [3] it was 0.72 nM.

As for `CC(C)n1ccc2c(N3CCOCC3)nc(-c3ccc(NC(=O)Nc4ccc(C(=O)N5CCC(N6CCCC6)CC5)cc4)cc3)nc21` [Compound 88, 1-[4-(7-isopropyl-4-morpholin-4-yl-7H-pyrrolo[2,3-d]pyrimidin-2-yl)phenyl]-3-{4-[(4-pyrrolidin-1-ylpiperidin-1-yl)carbonyl]phenyl}urea], the half-maximal inhibitory concentration (IC50) stood at 38 nM in test [1], 4.3 nM in test [2] and 0.59 nM in test [3].

On to `CCn1ccc2c(N3CCOCC3)nc(-c3ccc(NC(=O)Nc4ccc(C(=O)N5CCOCC5)cc4)cc3)nc21` [Compound 66, 1-[4-(7-ethyl-4-morpholin-4-yl-7H-pyrrolo[2,3-d]pyrimidin-2-yl)phenyl]-3-[4-(morpholin-4-ylcarbonyl)phenyl]urea], for which the values for the IC50 in test [1], in test [2] and in test [3] were 30 nM, 3.5 nM and 2.4 nM, respectively.

With `CCOC(=O)Nc1nc2cc(-c3nc(N4CCOCC4)c4ccn(CC(F)(F)F)c4n3)ccc2[nH]1` [Compound 49, ethyl {5-[4-morpholin-4-yl-7-(2,2,2-trifluoroethyl)-7H-pyrrolo[2,3-d]pyrimidin-2-yl]-1H-benzimidazol-2-yl}carbamate], the IC50 in test [1] turned out to be 210 nM; in test [2], 1840 nM; in test [3], 1450 nM.

Regarding `CCn1ccc2c(N3CCOCC3)nc(-c3ccc(NC(=O)Nc4ccc(C(=O)OC)cc4)cc3)nc21` [Compound 59, methyl 4-({[4-(7-ethyl-4-morpholin-4-yl-7H-pyrrolo[2,3-d]pyrimidin-2-yl)phenyl]carbamoyl}amino)benzoate], the results for the IC50 in test [1], in test [2] and in test [3] were 562 nM, 166 nM and 4.7 nM, respectively.

For the molecule `CNCCN(C)C(=O)c1ccc(NC(=O)Nc2ccc(-c3nc(N4CCOCC4)c4ccn(CC(F)(F)F)c4n3)cc2)cc1` [Compound 53, N-methyl-N-[2-(methylamino)ethyl]-4-[({4-[4-morpholin-4-yl-7-(2,2,2-trifluoroethyl)-7H-pyrrolo[2,3-d]pyrimidin-2-yl]phenyl}carbamoyl)amino]benzamide], the values for the IC50 in test [1], in test [2] and in test [3] were 16 nM, under 2.1 nM and 0.57 nM, respectively.

Turning to `CC(C)n1ccc2c(N3CCOCC3)nc(-c3ccc(NC(=O)Nc4ccc(C(=O)N5CCN(C)CC5)cc4)cc3)nc21` [Compound 82, 1-[4-(7-isopropyl-4-morpholin-4-yl-7H-pyrrolo[2,3-d]pyrimidin-2-yl)phenyl]-3-{4-[(4-methylpiperazin-1-yl)carbonyl]phenyl}urea], the IC50 in test [1] was found to be 38 nM; in test [2], 3.3 nM; in test [3] it was 1.5 nM.

Regarding `O=C(Nc1ccc(F)cc1)Nc1ccc(-c2nc(N3CCOCC3)c3ccn(CC(F)(F)F)c3n2)cc1` [Compound 38, 1-(4-fluorophenyl)-3-{4-[4-morpholin-4-yl-7-(2,2,2-trifluoroethyl)-7H-pyrrolo[2,3-d]pyrimidin-2-yl]phenyl}urea], the IC50 was found to be 1530 nM in test [1], 82 nM in test [2] and 3.45 nM in test [3].

Consider `CC(C)n1ccc2c(N3CCOCC3)nc(-c3ccc(NC(=O)Nc4ccc(C(=O)N5CCNCC5)cc4)cc3)nc21` [Compound 83, 1-[4-(7-isopropyl-4-morpholin-4-yl-7H-pyrrolo[2,3-d]pyrimidin-2-yl)phenyl]-3-[4-(piperazin-1-ylcarbonyl)phenyl]urea], for which the figures for the IC50 in test [1], in test [2] and in test [3] were 13 nM, under 2.3 nM and 0.64 nM, respectively.

For `CN(C)CCNC(=O)Nc1ccc(-c2nc(N3CCOCC3)c3ccn(CC(F)(F)F)c3n2)cc1` [Compound 41, 1-[2-(dimethylamino)ethyl]-3-{4-[4-morpholin-4-yl-7-(2,2,2-trifluoroethyl)-7H-pyrrolo[2,3-d]pyrimidin-2-yl]phenyl}urea], the IC50 in test [1] stood at 664 nM; in test [2] it was 154 nM; in test [3], 110 nM.

With `O=C(Nc1ccncc1)Nc1ccc(-c2nc(N3CCOCC3)c3ccn(CCNCCc4cnc[nH]4)c3n2)cc1` [Compound 30, 1-{4-[7-(2-{[2-(1H-imidazol-5-yl)ethyl]amino}ethyl)-4-morpholin-4-yl-7H-pyrrolo[2,3-d]pyrimidin-2-yl]phenyl}-3-pyridin-4-ylurea], the concentration for half-maximal inhibition (IC50) in test [1] was determined as 245 nM; in test [2], 14 nM; in test [3], 10.7 nM.

Regarding `CC(C)n1ccc2c(N3CCOCC3)nc(-c3ccc(NC(=O)Nc4ccncc4)cc3)nc21` [Compound 79, 1-[4-(7-isopropyl-4-morpholin-4-yl-7H-pyrrolo[2,3-d]pyrimidin-2-yl)phenyl]-3-pyridin-4-ylurea], the 50% inhibitory concentration (IC50) amounted to 193 nM in test [1], 28 nM in test [2] and 1.15 nM in test [3].

As for `CCN1CCN(C(=O)c2ccc(NC(=O)Nc3ccc(-c4nc(N5CCOCC5)c5ccn(C(C)C)c5n4)cc3)cc2)CC1` [Compound 92, 1-{4-[(4-ethylpiperazin-1-yl)carbonyl]phenyl}-3-{4-[7-(1-methylethyl)-4-morpholin-4-yl-7H-pyrrolo[2,3-d]pyrimidin-2-yl]phenyl}urea], the concentration for half-maximal inhibition (IC50) in test [1] is 72 nM; in test [2], 8.5 nM; in test [3], 0.67 nM.
